Common to all, as to assay type: binding
In one assay the test system is pCycE alone. The assay can be described thus: Counterscreen 2 ALPHAscreen with cyclin E phosphopeptide alone (CSRUN2/DCSRUN2). Conditions: for CyCEP ACT DCSRUN2 Averaged Max % Response: activation relative to WT-FBW7+pCycE, averaged maximum; for EC50: dose-response, triplicate, 10 point 3-fold dilutional series, read-out: CyCEP ACT DCSRUN2 Final EC50. In outline:
(§1)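 ALPHAscreen counterscreens, read on ENVISION, omitting either FBW7^ARG or the phosphorylated cyclin E peptide to flag general ALPHAscreen agonists. Compounds tested in triplicate as 10-point 3-fold dilutions up to approximately 87 μM. Activation expressed relative to WT-FBW7+pCycE, with 10% set as positive.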
A general note: Counterscreens check selectivity or assay interference.

The target of the next assay is T1, FBW7^ARG (RLFBW7) alone (Homo sapiens, UniProt Q969H0, R505L).
T1 construct: GST (TEV site and flexible linker) (N, cleaved yes); made in house; host or cells: SF9 insect cells (baculovirus)
T1 sequence (Q969H0 64-707 R505L): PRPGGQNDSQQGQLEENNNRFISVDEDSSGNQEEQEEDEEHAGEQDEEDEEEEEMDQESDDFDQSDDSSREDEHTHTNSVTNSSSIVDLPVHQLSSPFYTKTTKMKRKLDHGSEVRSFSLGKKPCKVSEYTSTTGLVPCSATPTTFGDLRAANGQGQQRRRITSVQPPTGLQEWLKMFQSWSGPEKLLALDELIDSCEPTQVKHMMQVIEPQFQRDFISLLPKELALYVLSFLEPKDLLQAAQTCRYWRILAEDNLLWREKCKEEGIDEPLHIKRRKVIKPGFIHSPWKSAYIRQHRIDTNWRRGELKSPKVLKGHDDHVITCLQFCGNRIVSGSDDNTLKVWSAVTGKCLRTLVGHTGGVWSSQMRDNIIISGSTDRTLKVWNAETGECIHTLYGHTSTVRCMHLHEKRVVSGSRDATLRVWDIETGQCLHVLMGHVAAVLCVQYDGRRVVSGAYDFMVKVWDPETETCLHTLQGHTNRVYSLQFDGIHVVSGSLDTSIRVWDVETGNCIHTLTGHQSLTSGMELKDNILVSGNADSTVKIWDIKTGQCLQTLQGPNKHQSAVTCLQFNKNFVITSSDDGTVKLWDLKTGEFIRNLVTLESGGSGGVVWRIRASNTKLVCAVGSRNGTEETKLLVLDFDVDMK
T1 sequence (P63208 2-163 partner): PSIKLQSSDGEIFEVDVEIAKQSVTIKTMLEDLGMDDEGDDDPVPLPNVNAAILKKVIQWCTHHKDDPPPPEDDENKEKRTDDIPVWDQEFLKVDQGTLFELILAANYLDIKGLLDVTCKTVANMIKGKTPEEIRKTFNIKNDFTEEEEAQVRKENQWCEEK
Put plainly: Counterscreen 1 ALPHAscreen with FBW7^ARG alone (CSRUN1/DCSRUN1). Conditions: dose-response counterscreen; for Emax: read-out: RLFBW7 ACT DCSRUN1 Averaged Max % Response. In outline:
as §1

The next assay concerns the target T2, FBW7^ARG+pCycE (Homo sapiens, UniProt Q969H0, R505L).
T2 construct: GST (TEV site and flexible linker) (N, cleaved yes); made in house; host or cells: SF9 insect cells (baculovirus)
Put plainly: FBW7^ARG-cyclin E agonist ALPHAscreen (primary PRUN, confirmation CRUN1, dose-response DRUN). Conditions: for EC50 / Emax: DRUN dose-response; for Emax: relative to WT-FBW7+pCycE, read-out: FBW7 ACT Averaged Max % Response. Put shortly:
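ALPHAscreen agonist assay: His-tagged FBW7 R505L on Ni-chelate acceptor beads (25 nM FBW7, 25 nM biotinylated phospho-cyclin E peptide, 10 µg/ml beads), streptavidin donor beads, ALPHA signal read. Primary and confirmation runs at 26.1 μM; dose-response as 10-point 3-fold series to ~87 μM, in triplicate; activation relative to WT-FBW7+pCycE.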
Background: Bead proximity is the source of the signal in Alpha formats.

[1] abbreviates: raw curve fit, read-out: RLFBW7 ACT DCSRUN1 EC50 Curve Fit Raw.
[2] abbreviates: read-out: RLFBW7 ACT DCSRUN1 Final EC50.
Setting [3] is: raw curve fit, read-out: FBW7 ACT EC50 Curve Fit Raw, Molar.
Setting [4] is: triplicate, 10 point 3-fold dilution, max approx. 87 μM, read-out: FBW7 ACT Final EC50, Molar.
Setting [5] is: confirmation assay, triplicate, single concentration 26.1 μM, read-out: FBW7 ACT CRUN1 Avg % Response and Stdev.
Setting [6] is: primary screen, 1536-well, 26.1 μM, FBW7^ARG + pCycE degron peptide, high control wt-FBW7+pCycE, read-out: FBW7 ACT PRUN % Response.

The record followed here is patent publication US20210047278A1, “E3 UBIQUITIN LIGASE AGONISTS, PHARMACEUTICAL COMPOSITIONS INCLUDING THE E3 UBIQUITIN LIGASE AGONISTS, RELATED METHODS OF USE” (FRED HUTCHINSON CANCER RESEARCH CENTER, priority 2018, published 2021).

Each structure is given as a SMILES string. Where two headings read alike, the source gives them in different places. A value given as a limit tells only on which side of the number the result lay.

In general, EC50 refers to the concentration needed to bring the measured effect to its halfway point.

T2 sequence (Q969H0 64-707 R505L): as the sequence (Q969H0 64-707 R505L) above
T2 sequence (P63208 2-163 partner): as the sequence (P63208 2-163 partner) above

As for `CSc1ccccc1C(=O)Nc1nc2nc(C)cc(C)c2s1` [SR-01000917298-1], the “CyCEP ACT DCSRUN2 Averaged Max % Response” value in the assay with pCycE alone came out at 0.18%. In addition, the EC50 in the assay with pCycE alone is more than 65.3 µM; at FBW7^ARG (RLFBW7) alone (setting [1]) it was 28.6 µM; on FBW7^ARG (RLFBW7) alone (setting [2]) it was 29.9 µM; on FBW7^ARG+pCycE (setting [3]), 53.6 µM; on FBW7^ARG+pCycE (setting [4]), more than 65.3 µM. Besides, the “RLFBW7 ACT DCSRUN1 Hill Slope” value at FBW7^ARG (RLFBW7) alone amounted to 6.64. The values for the Emax at FBW7^ARG (RLFBW7) alone and at FBW7^ARG+pCycE were 83% and 23.5%, respectively. In addition, the activation at 26.1 µM at FBW7^ARG+pCycE (setting [5]) stood at 3.94 ± 9.71%; on FBW7^ARG+pCycE (setting [6]) it was 8.85%.
In the case of `COc1ccccc1-c1ccc(N2CCN(C(=O)COc3ccccc3)CC2)nn1` [SR-01000920770-1], the “CyCEP ACT DCSRUN2 Averaged Max % Response” value with pCycE alone worked out at 0.32%. Further, the EC50 is more than 65.3 µM with pCycE alone; 0.0059 µM at FBW7^ARG (RLFBW7) alone (setting [1]); more than 65.3 µM at FBW7^ARG (RLFBW7) alone (setting [2]); 18 µM at FBW7^ARG+pCycE (setting [3]); more than 65.3 µM on FBW7^ARG+pCycE (setting [4]). Besides, the Emax at FBW7^ARG (RLFBW7) alone was -0.274%; at FBW7^ARG+pCycE, 23.1%. The activation at 26.1 µM at FBW7^ARG+pCycE (setting [5]) was determined as 5.69 ± 0.17%; on FBW7^ARG+pCycE (setting [6]), 7.62%.
`O=C(Nc1ccc2c(c1)OCO2)N1CCC(c2nnc(C3CC3)s2)CC1` [SR-01000922885-1]: the “CyCEP ACT DCSRUN2 Averaged Max % Response” value in the assay on pCycE alone was 0.08%. Besides, the concentration giving a half-maximal response (EC50) in the assay with pCycE alone is more than 65.3 µM; at FBW7^ARG (RLFBW7) alone (setting [1]), 24.5 µM; at FBW7^ARG (RLFBW7) alone (setting [2]), more than 65.3 µM; on FBW7^ARG+pCycE (setting [3]), 31.9 µM; on FBW7^ARG+pCycE (setting [4]), more than 65.3 µM. Besides, the Emax at FBW7^ARG (RLFBW7) alone is 0.2%; on FBW7^ARG+pCycE, 17.5%. Moreover, the results for the activation at 26.1 µM at FBW7^ARG+pCycE (setting [5]) and at FBW7^ARG+pCycE (setting [6]) were 2.33 ± 0.59% and 2.62%, respectively.
With `Cc1cccc(NC(=O)N2CCC(c3nnc(C4CC4)s3)CC2)c1` [SR-01000922889-1], the “CyCEP ACT DCSRUN2 Averaged Max % Response” value in the assay with pCycE alone worked out at 0.23%. The EC50 in the assay on pCycE alone is more than 65.3 µM; on FBW7^ARG (RLFBW7) alone (setting [1]), 22.5 µM; at FBW7^ARG (RLFBW7) alone (setting [2]) it was more than 65.3 µM; on FBW7^ARG+pCycE (setting [3]), 16.5 µM; at FBW7^ARG+pCycE (setting [4]), more than 65.3 µM. Moreover, the Emax was determined as 0.09% at FBW7^ARG (RLFBW7) alone and 18.3% at FBW7^ARG+pCycE. For the same molecule, the activation at 26.1 µM is 4.96 ± 0.03% at FBW7^ARG+pCycE (setting [5]) and 3.13% at FBW7^ARG+pCycE (setting [6]).
